Experimental data reported in patent US12268683B2, “Compounds and methods for synergistic activation of M channels” (THE REGENTS OF THE UNIVERSITY OF CALIFORNIA, priority 2018, dated 2025).

What was measured:
[1] = molecular target: KCNQ3* (Homo sapiens, UniProt O43525, A315T); assay: [3H]GABA competition binding to oocytes expressing KCNQ3*; conditions: 100 μM, 10 μM 3H-GABA
Description: Each group of oocytes was placed in a round-bottomed, 15-ml falcon tube, washed with ND96, and then resuspended in ND96 containing 10 μM γ-[2,3-^3H(N)]-aminobutyric acid (^3H-GABA) (Perkin Elmer, Waltham, Mass.) at 25-40 Ci/mMol specific activity either alone, or with 100 μM 2FPG or 100 μM 3FMSG, for a 30 minute incubation at room temperature. Oocytes were then washed four times in 16° C. ND96, transferred to individual wells in a 96 well plate and lysed in 0.2% SDS in ND96. Each oocyte lysate was transferred to a scintillation vial containing 5 ml Cytoscint scintillation cocktail fluid (MP Biomedicals, Santa Ana, Calif.). Vials were capped, shaken, and then allowed to sit at room temperature for at least 30 min before scintillation counting in a Beckmann Coulter LS6500 liquid scintillation counter.

[2] = molecular target: KCNQ2-R213A/KCNQ3 (Homo sapiens, UniProt O43525+O43526, R213A); assay: TEVC of KCNQ2-R213A/KCNQ3 channels; assay type: cell-based
From the text: (§1) As previously described (12), we generated cRNA transcripts encoding human KCNA1, KCNE1, KCNE2, KCNE3, KCNQ1, KCNQ2, KCNQ3, KCNQ4 or KCNQ5 by in vitro transcription using the T7 polymerase mMessage mMachine kit (Thermo Fisher Scientific), after vector linearization, from cDNA sub-cloned into plasmids incorporating Xenopus laevis β-globin 5′ and 3′ UTRs flanking the coding region to enhance translation and cRNA stability. We quantified cRNA by spectrophotometry. We generated mutant KCNQ2 and KCNQ3 cDNAs by site-directed mutagenesis with a QuikChange kit (Stratagene, San Diego, Calif.) and prepared the cRNAs as above. We injected defolliculated stage V and VI Xenopus laevis oocytes (Ecocyte Bioscience, Austin, Tex. and Xenoocyte, Dexter, Mich., US) with KCNE and/or KCNQ cRNAs (5-20 ng). […]
(§2) We performed TEVC at room temperature using an OC-725C amplifier (Warner Instruments, Hamden, Conn.) and pClamp10 software (Molecular Devices, Sunnyvale, Calif.) 2-5 days after cRNA injection as described in the section above. […] We recorded currents in response to voltage pulses between −120 or −80 mV and +40 mV at 20 mV intervals from a holding potential of −80 mV, to yield current-voltage relationships, current magnitude, and for quantifying activation rate. We analyzed data using Clampfit (Molecular Devices) and Graphpad Prism software (GraphPad, San Diego, Calif., USA); values are stated as mean±SEM. […]

[3] = molecular target: KCNQ3/KCNQ5 (Homo sapiens, UniProt O43525+Q9NR82); assay: TEVC of KCNQ3/KCNQ5 channels; assay type: cell-based; conditions: similar potency
From the text: as §1, §2

[4] = molecular target: KCNQ1/KCNE2 (Homo sapiens, UniProt P51787); assay: TEVC of KCNQ1/KCNE2 channels; assay type: cell-based
From the text: as §1, §2

Row | SMILES | competition with [3H]GABA binding to KCNQ3* [1] | effect on KCNQ2-R213A/KCNQ3 (in words) [2] | efficacy on KCNQ3/KCNQ5, lower than on KCNQ5 [3] [%] | effect on KCNQ1/KCNE2 (in words) [4]
1 | CS(=O)(=O)N(CC(=O)O)c1cccc(F)c1 [3FMSG] | able to compete out GABA binding |  |  | 
2 | CCCCCCCCC/C=C/C=O [(E)-2-dodecenal] |  | completely insensitive | ~30 | minimal effects
